Here are results for 5 molecules from patent US12539292B2, “BRM targeting compounds and associated methods of use” (Arvinas Operations, Inc., priority 2018, dated 2026).

Each structure is given as a SMILES string. Read-outs that look alike come from different tables or passages of the source. Where only a bound is given, the exact number is not on record here.

The assay concerns the target T1, BRM (Homo sapiens, UniProt P51531).
T1 construct: In-Cell Western Screen of BRM Degradation in SW1573 Cells; endogenous in cells; host or cells: SW1573
Put plainly: In-cell Western screen of BRM degradation in SW1573 cells (Dmax and DC50). Format: cell-based. The essentials: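 SW1573, overnight cpd exposure (18-20 h), 0.1% DMSO final. PFA fix, 0.5% Triton permeabilization, block; IR secondaries at 800/680 nm. Odyssey read → Dmax, DC50.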

Where [1] appears, read: BRM degradation, SW1573 cells, Table 2D, read-out: *DC50.
The mark [2] stands for this setting: BRM degradation, SW1573 cells, read-out: DC50.

T1 sequence (P51531 whole entry): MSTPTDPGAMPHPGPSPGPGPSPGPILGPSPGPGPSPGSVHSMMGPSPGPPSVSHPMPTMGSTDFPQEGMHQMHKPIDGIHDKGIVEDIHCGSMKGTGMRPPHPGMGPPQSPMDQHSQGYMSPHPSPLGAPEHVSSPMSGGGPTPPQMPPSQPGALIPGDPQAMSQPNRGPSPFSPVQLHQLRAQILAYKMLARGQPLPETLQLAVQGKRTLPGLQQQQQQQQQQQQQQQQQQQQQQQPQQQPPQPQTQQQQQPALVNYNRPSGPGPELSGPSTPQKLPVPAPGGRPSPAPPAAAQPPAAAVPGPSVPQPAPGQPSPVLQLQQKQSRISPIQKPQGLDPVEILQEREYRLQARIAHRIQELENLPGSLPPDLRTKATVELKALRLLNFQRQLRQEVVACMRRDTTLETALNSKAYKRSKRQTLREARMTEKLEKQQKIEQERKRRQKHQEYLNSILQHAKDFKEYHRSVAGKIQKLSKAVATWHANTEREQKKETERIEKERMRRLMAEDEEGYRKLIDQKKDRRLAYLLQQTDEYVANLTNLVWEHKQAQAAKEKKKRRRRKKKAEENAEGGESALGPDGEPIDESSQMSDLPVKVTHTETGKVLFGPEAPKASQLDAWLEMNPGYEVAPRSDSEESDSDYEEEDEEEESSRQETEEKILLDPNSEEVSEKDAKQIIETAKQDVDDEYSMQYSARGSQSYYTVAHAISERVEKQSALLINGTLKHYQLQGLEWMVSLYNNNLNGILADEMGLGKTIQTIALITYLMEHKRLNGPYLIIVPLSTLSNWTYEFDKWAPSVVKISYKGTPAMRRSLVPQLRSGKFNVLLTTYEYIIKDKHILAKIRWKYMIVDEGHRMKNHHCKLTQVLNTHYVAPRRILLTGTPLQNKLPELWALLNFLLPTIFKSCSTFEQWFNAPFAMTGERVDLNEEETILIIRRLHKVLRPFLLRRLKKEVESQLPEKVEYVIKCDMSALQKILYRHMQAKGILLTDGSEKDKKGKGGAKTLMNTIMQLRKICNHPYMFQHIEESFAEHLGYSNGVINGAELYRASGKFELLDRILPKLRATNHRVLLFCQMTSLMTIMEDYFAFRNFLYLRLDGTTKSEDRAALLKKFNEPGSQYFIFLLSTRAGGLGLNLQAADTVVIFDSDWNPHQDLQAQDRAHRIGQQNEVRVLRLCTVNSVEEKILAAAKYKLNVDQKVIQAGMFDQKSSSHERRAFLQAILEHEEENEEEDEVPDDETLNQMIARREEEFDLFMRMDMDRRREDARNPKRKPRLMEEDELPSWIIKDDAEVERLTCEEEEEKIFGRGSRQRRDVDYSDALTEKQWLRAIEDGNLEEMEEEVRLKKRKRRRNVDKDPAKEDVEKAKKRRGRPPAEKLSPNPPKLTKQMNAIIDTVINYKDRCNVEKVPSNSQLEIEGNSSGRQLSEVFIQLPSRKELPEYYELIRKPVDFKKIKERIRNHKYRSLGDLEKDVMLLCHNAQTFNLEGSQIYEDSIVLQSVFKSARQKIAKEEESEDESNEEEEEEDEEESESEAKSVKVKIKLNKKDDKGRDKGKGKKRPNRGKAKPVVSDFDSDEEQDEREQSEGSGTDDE

Broadly, the Dmax is the greatest extent of degradation seen. The term DC50 denotes the concentration at which degradation of the target reaches its halfway point. Consider `Cc1ncsc1-c1ccc([C@H](C)NC(=O)[C@@H]2C[C@@H](O)CN2C(=O)C(c2cc(N3CCC(CN4CCC(O[C@H]5C[C@H](CN6CCOC7(CCN(c8cc(-c9ccccc9O)nnc8N)CC7)C6)C5)CC4)CC3)no2)C(C)C)cc1` (stereo partly drawn) [compound 610, (2S,4R)-1-((R)-2-(3-(4-((4-((1r,3r)-3-((9-(3-amino-6-(2-hydroxyphenyl)pyridazin-4-yl)-1-oxa-4,9-diazaspiro[5.5]undecan-4-yl)methyl)cyclobutoxy)piperidin-1-yl)methyl)piperidin-1-yl)isoxazol-5-yl)-3-methylbutanoyl)-4-hydroxy-N-((S)-1-(4-(4-methylthiazol-5-yl)phenyl)ethyl)pyrrolidine-2-carboxamide], for which, under “BRM degradation, SW1573 cells, Table 2D, read-out: **Dmax (%) (% degraded)”, the greatest degradation seen (Dmax) was > 75%. In addition, under setting [1], the 50% degradation concentration (DC50) is < 0.0025 µM. For the molecule `Cc1ncsc1-c1ccc([C@H](C)NC(=O)[C@@H]2C[C@@H](O)CN2C(=O)[C@H](c2cc(N3CCC(OC4CCN([C@H]5C[C@H](CN6CCOC7(CCN(c8cc(-c9ccccc9O)nnc8N)CC7)C6)C5)CC4)CC3)no2)C(C)C)cc1` [compound 615, (2S,4R)-1-((S)-2-(3-(4-((1-((1r,3S)-3-((9-(3-amino-6-(2-hydroxyphenyl)pyridazin-4-yl)-1-oxa-4,9-diazaspiro[5.5]undecan-4-yl)methyl)cyclobutyl)piperidin-4-yl)oxy)piperidin-1-yl)isoxazol-5-yl)-3-methylbutanoyl)-4-hydroxy-N-((S)-1-(4-(4-methylthiazol-5-yl)phenyl)ethyl)pyrrolidine-2-carboxamide], the DC50 under setting [1] is > 0.03 µM.

For `Cc1ncsc1-c1ccc([C@H](C)NC(=O)[C@@H]2C[C@@H](O)CN2C(=O)[C@H](c2cc(OC/C=C/c3ncc(O[C@H]4C[C@H](Oc5cc(N6C7CCC6CN(c6cc(-c8ccccc8O)nnc6N)C7)ccn5)C4)cn3)no2)C(C)C)cc1` [compound 391, (2S,4R)-1-((2S)-2-(3-(((E)-3-(5-((1r,3S)-3-((4-(3-(3-amino-6-(2-hydroxyphenyl)pyridazin-4-yl)-3,8-diazabicyclo[3.2.1]octan-8-yl)pyridin-2-yl)oxy)cyclobutoxy)pyrimidin-2-yl)allyl)oxy)isoxazol-5-yl)-3-methylbutanoyl)-4-hydroxy-N-((S)-1-(4-(4-methylthiazol-5-yl)phenyl)ethyl)pyrrolidine-2-carboxamide], the DC50 (target protein degradation, read-out: BRM DC50) was > 0.03 µM. For `Cc1ncoc1-c1ccc([C@H](C)NC(=O)[C@@H]2C[C@@H](O)CN2C(=O)[C@H](c2cc(OCCN3CCC(O[C@H]4C[C@H](Oc5cc(N6C7CCC6CN(c6cc(-c8ccccc8O)nnc6N)C7)ccn5)C4)CC3)no2)C(C)C)cc1` [compound 212, (2S,4R)-1-((2S)-2-(3-(2-(4-((1r,3S)-3-((4-(3-(3-amino-6-(2-hydroxyphenyl)pyridazin-4-yl)-3,8-diazabicyclo[3.2.1]octan-8-yl)pyridin-2-yl)oxy)cyclobutoxy)piperidin-1-yl)ethoxy)isoxazol-5-yl)-3-methylbutanoyl)-4-hydroxy-N-((S)-1-(4-(4-methyloxazol-5-yl)phenyl)ethyl)pyrrolidine-2-carboxamide], the DC50 under setting [2] was > 0.03 µM. Further, the Dmax (BRM degradation, SW1573 cells, tested at the top concentration of between 0.3 and 10 μM, read-out: Dmax (%) (% degraded)) is > 75%. Regarding `Cc1ncsc1-c1ccc(CNC(=O)[C@@H]2C[C@@H](O)CN2C(=O)[C@@H](NC(=O)COCCOCCOCCOc2cccc(N3C[C@H]4C[C@@H]3CN4c3cc(-c4ccccc4O)nnc3N)n2)C(C)(C)C)cc1` [compound 32, (2S,4R)-1-[(2S)-2-(1-[6-[(1R,4R)-5-[3-amino-6-(2-hydroxyphenyl)pyridazin-4-yl]-2,5-diazabicyclo[2.2.1]heptan-2-yl]pyridin-2-yl]-1,4,7,10-tetraoxadodecan-12-amido)-3,3-dimethylbutanoyl]-4-hydroxy-N-[[4-(4-methyl-1,3-thiazol-5-yl)phenyl]methyl]pyrrolidine-2-carboxamide], the 50% degradation concentration (DC50) under setting [2] is > 0.03 µM. For the same molecule, the Dmax (BRM degradation, SW1573 cells, when tested at the top concentration of between 0.3 and 10 μM, read-out: Dmax (%) (% degraded)) is > 75%.
